Measurements taken from US8389524B2, “Tricyclic nitrogen containing compounds as antibacterial agents” (Glaxo Group Limited, priority 2007, dated 2013).
Structures can show the parent of a compound that is named as a salt.

Tests used:
[1] = Antimicrobial Activity Assay: whole-cell antimicrobial activity by broth microdilution (CLSI M7-A7), MIC; assay type: cell-based, Gram-positive and Gram-negative organisms; conditions: against a strain of at least one of the organisms listed; tested in at least one exemplified salt or free base form
Description: Whole-cell antimicrobial activity was determined by broth microdilution using the Clinical and Laboratory Standards Institute (CLSI) recommended procedure, Document M7-A7, “Methods for Dilution Susceptibility Tests for Bacteria that Grow Aerobically”. The compounds were tested in serial two-fold dilutions ranging from 0.016 to 16 mcg/ml.
The minimum inhibitory concentration (MIC) was determined as the lowest concentration of compound that inhibited visible growth. A mirror reader was used to assist in determining the MIC endpoint.
Compounds were evaluated against Gram-positive organisms, selected from Staphylococcus aureus, Streptococcus pneumoniae, Streptococcus pyogenes, Enterococcus faecalis and Enterococcus faecium.
In addition, compounds were evaluated against Gram-negative organisms selected from Haemophilus influenzae, Moraxella catarrhalis, Escherichia coli, Pseudomonas aeruginosa, Proteus mirabilis, Enterobacter cloacae, Enterobacter aerogenes, Klebsiella pneumoniae and Stenotrophomonas maltophilia.

[2] = system: Mycobacterium tuberculosis H37Rv; assay: Mycobacterium tuberculosis H37Rv Inhibition Assay (resazurin, MIC); assay type: cell-based; conditions: ATCC 25618 / H37Rv, 144 h, read-out: MIC value, H37Rv strain (ATCC25618), Middlebrook 7H9+ADC, six days at 37° C., resazurin fluorescence after 48 hours

Row | SMILES | MIC [1] | MIC [2]
1 | O=c1ccc2ccc(=O)n3c2n1C[C@H]3CN1CCC(NCc2cc3c(cn2)COC3)CC1 [Example 9, (1R)-1-({4-[(1,3-Dihydrofuro[3,4-c]pyridin-6-ylmethyl)amino]-1-piperidinyl}methyl)-1,2-dihydro-4H,1H-imidazo[1,2,3-ij]-1,8-naphthyridine-4,9-dione hydrochloride] | ≤ 4 µg/mL | 
2 | O=c1ccc2ccc(=O)n3c2n1C[C@H]3CN1CCC(NCc2nc3cccc(F)c3[nH]2)CC1 [Example 46, (1R)-1-[(4-{[(4-Fluoro-1H-benzimidazol-2-yl)methyl]amino}-1-piperidinyl)methyl]-1,2-dihydro-4H,9H-imidazo[1,2,3-ij]-1,8-naphthyridine-4,9-dione dihydrochloride] |  | < 2 µg/mL
3 | O=c1ccc2ccc(=O)n3c2n1C[C@H]3CN1CCC(NCc2ccc3c(c2)OCCC3)CC1 [Example 50, (1R)-1-({4-[(3,4-Dihydro-2H-chromen-7-ylmethyl)amino]-1-piperidinyl}methyl)-1,2-dihydro-4H,9H-imidazo[1,2,3-ij]-1,8-naphthyridine-4,9-dione hydrochloride] |  | < 2 µg/mL
4 | N#Cc1cc(CNC2CCN(C[C@@H]3Cn4c(=O)cnc5ccc(=O)n3c54)CC2)cc2c1OCCO2 [Example 56, 7-{[(1-{[(1R)-3,8-Dioxo-1,2-dihydro-3H,8H-2a,5,8a-triazaacenaphthylen-1-yl]methyl}-4-piperidinyl)amino]methyl}-2,3-dihydro-1,4-benzodioxin-5-carbonitrile hydrochloride] |  | < 2 µg/mL
